The values that follow come from publication doi:10.1101/2025.10.10.681740, “Distinct Filament Conformation for Receptor-Bound Amyloid-ß from Alzheimer’s Disease Brain” (bioRxiv, 2025).

Series [1] relates to PrP^C. Conditions: cited from earlier work.
Series [2] is described as follows: Electron microscopy length of Aß assemblies. In kind it is physicochemical. Conditions: for length (mean ± sd): electron microscopy; for filament length, overall: human AD brain.
For a further series, the system named is Aß. In kind it is biochemical, mouse.
In series [3] the test system is PrP^C.
The test system of the next series is anti-Aß antibodies. Description: Immunoblot epitope profiling, receptor-bound vs sarkosyl-insoluble Aß. In kind it is binding. Conditions: n=4 AD brains; for amino-terminal epitope immunoreactivity, receptor-bound vs sarkosyl-insoluble: normalized to mid-region antibody 4G8, HFIP-monomerized. An excerpt: The tubes were then opened and kept in the fume hood overnight at room temperature to evaporate the HFIP. The remaining protein films were resuspended in 1X Laemmli buffer supplemented with 8 M urea. The resulting samples were separated on 4-20% gradient Criterion Tris-Glycine gels (BioRad), transferred onto the nitrocellulose membranes, blocked with Rockland fluorescent Western Blot blocking buffer and immunoprobed with the appropriate detection antibodies overnight at 4C, washed in PBST, incubated the IRdye conjugated secondary antibodies (LiCor) for 1 h at RT and imaged on the near-infrared scanner (LiCor Odyssey). Both primary and secondary antibody were diluted in Rockland fluorescent Western Blot blocking buffer. The immunoblot data quantitation was performed using the LiCor ImageStudio software.

Series [4] in a line: Monomer count from cryo-EM rung spacing and length. It counts as physicochemical. Conditions: 4.75 Å rung spacing, 65 nm length, two monomers per rung. The text has this:
Data sets were processed using standard amyloid helical reconstruction procedures implemented in RELION 4.0 [49]. Dose-fractionated micrograph movies were corrected for beam-induced motion using the RELION’s own implementation of motion correction. Contrast transfer function (CTF) parameters were estimated from the motion-corrected micrographs using CTFFIND-4.1 [51]. The start-end coordinates of the Aß filaments were manually marked in the aligned micrographs using RELION 4.0. Segments were extracted with an inter-box distance of 12-Å, a helical rise of 4.75 Å and using a box size of 200 pixels with 1.068 Å per pixel. Extracted segments were subjected to several rounds of reference free two-dimensional (2D) classification to remove suboptimal segments and to select for segments showing detailed features along the filament axis. A three-dimensional (3D) cylinder was generated using the “relion_helix_toolbox” utility and used as reference for an initial 3D classification of the helical segments retained after the 2D classification steps. The initial 3D classification performed on the set of optimal 2D-segments assumed a helical rise of 4.75 Å and a value of the helical twist as estimated from the crossover distances in the 2D class averages. […]

The test system of series [5] is Aß42. Description: Filament length at end of polymerization reactions (negative stain EM).
In series [6] the test system is PrP^C. The source holds these as a separate data set.
The subject of series [7] is Aß42. Description: Thioflavin-T polymerization of Aß42. In kind it is biochemical.
Series [8] in a line: Size exclusion chromatography with PLISA readout. The following applies: Superdex 200, purified Aß spiked in control brain TBS lysate, PLISA of fractions. In kind it is physicochemical.
The test system of series [9] is human iPSC-derived cortical excitatory neurons. The series is described as follows: Synapse loss in human iPSC-derived cortical neurons. In kind it is cell-based. Conditions: 7 days. On the procedure: Human neurons derived from induced pluripotent stem cells (iPSCs) with Neurogenin2 (Ngn2) stably integrated under doxycycline control were prepared and cultured as described. Poly-D-Lysine-coated 384 well plates (Corning # 354663) were seeded with 2,000 cells in 50 μl of Classic Neuronal Media (CNR: 50% DMEM/F12 (Gibco), 50% Neurobasal-A (Gibco), 0.5X Glutamax (Gibco), 1X MEM Non-Essential Amino Acids Solution (Gibco), 0.5X B27 supplement (Gibco), 0.5X N-2 supplement (Gibco), 10 ng/ml BDNF (PeproTech), 10 ng/ml NT-3 (PeproTech), 1 μg/ml mouse Laminin (Gibco)) containing 2 μg/ml doxycycline hydrochloride (Sigma). On DIV 7 and 14, 50 μl of CNR without doxycycline hydrochloride was added to each well. Every week after that, 30 μl of media was removed from each well and replaced with 30 μL of fresh media. Cells were grown for at least 60 days before treatment with receptor-bound Aßo. […]
Image analysis was performed using ImageXpress built in analysis software, MetaXpress. […] To measure synapsin1/2 density on MAP2, the number of synaptic puncta overlapping with the MAP2 mask were counted and then divided by the area of the MAP2 mask. To measure Synapsin1/2 colocalized with homer1b/c density on MAP2, first, only the round objects of Synapsin1/2 and Homer1b/c colocalized with each other that also overlap with MAP2 were counted and divided by the MAP2 area. […]

“Also recorded” adds a separate entry of the source.

Turning to amyloid-ß [Aß], the “off-rate from PrP^C” value in the series with PrP^C [1] is “slow off-rate with a half-life of days”.
Regarding “receptor-bound Aß: PSCMA-released, IC16-immunopurified Aß filament pool from Alzheimer's disease brain”, the “length (mean ± sd)” value in series [2] (second of three AD brains) is on record as 70±24.4 nm; in series [2] (third of three AD brains), 71±29.2 nm. Besides, the entries for the “filament length, overall” value in series [2] and in series [2] (listed as Receptor-bound amyloid-ß) were “about 65 nm” and 65 nm, respectively. Also, in the series on Aß, the “amount detected in APP/PS1, Prnp−/− mice (vs WT Prnp background)” value is listed as “Significantly lower amount”. The “reduction of Aß released by PSCMA when PrP^C was absent” value in the series on Aß is given as “about 50%”. Also, the “PrP^C binding, summary” value with PrP^C [3] is recorded as “binds”. In addition, the “apparent avidity for PrP^C in PLISA” value with PrP^C [3] is “binds PrP^C with the affinity similar to that for synthetic Aß oligomeric preps (F12)”. Moreover, the “Aß40 reactivity, receptor-bound vs fibrillary pool” value with anti-Aß antibodies (carboxyl terminus, normalized to mid-region antibody) is on record as “greater for Aß40 in the receptor-bound pool”. In addition, the “amino-terminal epitope immunoreactivity, receptor-bound vs sarkosyl-insoluble” value in the series with anti-Aß antibodies is given as “five-fold enriched”; with anti-Aß antibodies (listed as Receptor-bound Aß) it was “significant increase in the immunoreactivity with antibodies directed against N-terminus of Aß”. Further, the “pyroglutamylated Aß reactivity, receptor-bound vs insoluble fibrillary Aß” value in the series on anti-Aß antibodies (normalized to mid-region antibody) is “present equally in both receptor-bound Aß and insoluble fibrillary Aß”. In addition, the “number of monomers per assembly” value in series [4] is “about 300”. Also, in the series on Aß42 [5] (5 μM Aß42, without seeds or with 20 nM seeds, negative stain EM), the “length of filaments at completion of polymerization” value is recorded as 200-500 nm. Further, the “filament length compared with other seeds / no seeds” value in the series with Aß42 [5] (4 different brains, 20 nM seeds, 5 μM Aß42) is listed as “significantly shorter”. Also, the “distance of PrP^C-associated gold particles from filament tips” value with PrP^C [6] is on record as not above 5 nm. Also, in the series on Aß42 [7] (20 nM monomer equivalent seeds, 5 μM Aß42, vs no seeds), the “maximal ThT fluorescence” value is reported as “reduced the maximal fluorescence achieved”. In the series with Aß42 [7] (20 nM monomer equivalent, 5 μM Aß42, n=19 experiments, Brains A-D, vs no seeds), the “effect on Aß42 polymerization rate as seed” value is recorded as “significantly slowed polymerization”. Also, the “size by migration of globular proteins” value in [8] is approximately 650 kDa. Also, in series [9] (160 pM Brain A, 80 pM Brain B, 16 pM Brain C, vs control brain fraction), the “dendrite density (MAP2 area)” value is listed as “does not change”. For the same substance, in series [9] (16-160 pM assembly (4-40 nM monomer equivalent), three AD brains vs control brain fraction), the “synaptic density (Synapsin1/Homer1b/c overlap at MAP2 dendrites)” value is “significantly reduced; also recorded: potently suppresses synapse density”.
